Measurements as given in US11198695B2, “Fused ring derivative having MGAT-2 inhibitory activity” (Shionogi & Co., Ltd., priority 2017, dated 2021).
pIC50: −log10 of the molar value. Values after ≈ are worked out from the molar mass of the structure shown.

How the values were obtained:
[1] = Metabolism stability test; format: in vitro ADME; conditions: human liver microsomes, 30 minutes, 37° C., NADPH, 0.5 μmol/L of test compound
Method: Using commercially available pooled human hepatic microsomes, the compound of the present invention was reacted for a constant time, a remaining rate was calculated by comparing a reacted sample and an unreacted sample, thereby, a degree of metabolism of the compound of the present invention in liver was assessed.
A reaction was performed (oxidative reaction) at 37° C. for 0 minute or 30 minutes in the presence of 1 mmol/L NADPH in 0.2 mL of a buffer (50 mmol/L Tris-HCl pH 7.4, 150 mmol/L potassium chloride, 10 mmol/L magnesium chloride) containing 0.5 mg protein/mL of human liver microsomes. After the reaction, 50 μL of the reaction solution was added to 100 μL of a methanol/acetonitrile=1/1 (v/v) solution, mixed and centrifuged at 3000 rpm for 15 minutes. The compound of the present invention in the supernatant was quantified by LC/MS/MS, and a remaining amount of the compound of the present invention after the reaction was calculated, letting a compound amount at 0 minute reaction time to be 100%. (Result) Remaining rate was shown at 0.5 μmol/L of test compound.

[2] = Solubility test (1% DMSO addition, pH 6.8 artificial intestinal juice); format: physicochemical; conditions: pH 6.8 artificial intestinal juice with 1% DMSO, kinetic from dmso stock, 16 hours at 25° C.
Method: The solubility of the compound of the present invention was determined under 1% DMSO addition conditions. 10 mmol/L solution of the compound was prepared with DMSO, and 6 μL of the solution of the compound of the present invention was added to 594 μL of pH 6.8 artificial intestinal juice (118 mL of 0.2 mol/L NaOH test solution and water were added to 250 mL of 0.2 mol/L potassium dihydrogen phosphate test solution to reach 1000 mL). The mixture was left standing for 16 hours at 25° C., and the mixture was vacuum-filtered. The filtrate was two-fold diluted with methanol/water=1/1 (V/V), and the compound concentration in the filtrate was measured with HPLC or LC/MS/MS by the absolute calibration method.

[3] = molecular target: hERG channel (IKr) (Homo sapiens (Human), UniProt Q12809); assay: hERG test; format: cell-based; conditions: pH 7.4, CHO cells expressing hERG channel, 10 μmol/L of test compound, read-out: % inhibition of tail peak current (IKr)
hERG channel (IKr), sequence (Q12809 whole entry): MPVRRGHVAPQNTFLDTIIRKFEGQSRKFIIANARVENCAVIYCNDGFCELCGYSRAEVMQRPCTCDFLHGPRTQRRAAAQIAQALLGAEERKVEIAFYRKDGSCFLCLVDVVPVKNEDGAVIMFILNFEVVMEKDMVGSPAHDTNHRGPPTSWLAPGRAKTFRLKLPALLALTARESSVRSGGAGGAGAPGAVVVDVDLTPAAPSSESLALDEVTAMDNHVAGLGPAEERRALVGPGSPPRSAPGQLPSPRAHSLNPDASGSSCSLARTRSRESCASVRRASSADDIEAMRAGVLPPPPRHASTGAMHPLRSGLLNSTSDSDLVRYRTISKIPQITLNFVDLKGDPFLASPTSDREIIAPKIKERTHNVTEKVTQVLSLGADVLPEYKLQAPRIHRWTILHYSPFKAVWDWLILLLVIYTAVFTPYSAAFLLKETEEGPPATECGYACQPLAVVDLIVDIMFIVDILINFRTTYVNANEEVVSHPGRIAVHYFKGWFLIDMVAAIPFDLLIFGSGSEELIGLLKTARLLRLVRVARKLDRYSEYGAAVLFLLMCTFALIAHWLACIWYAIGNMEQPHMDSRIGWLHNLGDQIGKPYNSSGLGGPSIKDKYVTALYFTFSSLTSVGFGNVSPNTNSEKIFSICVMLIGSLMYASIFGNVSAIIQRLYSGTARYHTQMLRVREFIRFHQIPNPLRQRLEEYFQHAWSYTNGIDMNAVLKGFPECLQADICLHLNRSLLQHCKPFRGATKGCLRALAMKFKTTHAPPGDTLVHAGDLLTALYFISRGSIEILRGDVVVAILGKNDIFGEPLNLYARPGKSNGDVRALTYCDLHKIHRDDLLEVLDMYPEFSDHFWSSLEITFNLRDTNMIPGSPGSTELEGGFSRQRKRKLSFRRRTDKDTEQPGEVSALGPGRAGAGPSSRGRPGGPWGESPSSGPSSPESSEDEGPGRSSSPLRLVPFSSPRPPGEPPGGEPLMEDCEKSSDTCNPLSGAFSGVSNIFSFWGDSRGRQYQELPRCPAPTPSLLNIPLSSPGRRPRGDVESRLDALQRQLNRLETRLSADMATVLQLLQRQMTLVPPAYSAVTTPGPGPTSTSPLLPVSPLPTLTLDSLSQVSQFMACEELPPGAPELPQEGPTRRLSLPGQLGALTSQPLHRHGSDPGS
Excerpt: For the purpose of assessing risk of an electrocardiogram QT interval prolongation of the compound of the present invention, effects of the compound of the present invention on delayed rectifier K^+ current (IKr), which plays an important role in the ventricular repolarization process, was studied using CHO cells expressing human ether-a-go-go related gene (hERG) channel.
After a cell was retained at a membrane potential of −80 mV by whole cell patch clamp method using an automated patch clamp system (QPatch; Sophion BIoscience A/S), IKr induced by application of a leak potential of −50 mV followed by depolarization pulse stimulation at +20 mV for 2 seconds and, further, repolarization pulse stimulation at −50 mV for 2 seconds, was recorded. […] From the recording IKr, an absolute value of the tail peak current was measured based on the current value at the resting membrane potential using analysis software (Falster Patch; Sophion Bioscience A/S). Further, the % inhibition of tail peak current for the compound of the present invention relative to the tail peak current after application of the vehicle is calculated to assess influence of the compound of the present invention on IKr. (Result) % inhibition was shown at 10 μmol/L of test compound.

[4] = molecular target: recombinant human MGAT2 (Homo sapiens (Human), UniProt Q3SYC2); assay: Measurement of human MGAT2 inhibitory activity; format: biochemical; conditions: read-out: IC50 (concentration exhibiting 50% enzyme inhibition), Table 53
recombinant human MGAT2, sequence (Q3SYC2 whole entry): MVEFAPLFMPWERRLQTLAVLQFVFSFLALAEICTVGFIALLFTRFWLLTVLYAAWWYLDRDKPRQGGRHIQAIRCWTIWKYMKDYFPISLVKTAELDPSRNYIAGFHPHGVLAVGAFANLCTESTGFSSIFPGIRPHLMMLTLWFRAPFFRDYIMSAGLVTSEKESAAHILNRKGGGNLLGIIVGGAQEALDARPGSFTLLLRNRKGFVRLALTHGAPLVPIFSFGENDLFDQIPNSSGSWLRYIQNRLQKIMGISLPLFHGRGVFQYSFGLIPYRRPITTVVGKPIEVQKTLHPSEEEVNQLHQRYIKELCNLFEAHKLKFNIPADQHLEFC
Procedure, shortened: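 RapidFire ESI-MS read-out of the diolein/diolein-d5 peak ratio gave % inhibition, with no-enzyme and full-enzyme wells as 100% and 0%. Reactions ran 1 h at room temperature at pH 7.4 (phosphate, 2 mmol/L DTT), using Flag-tagged human MGAT2 membranes from Sf9 cells and a substrate solution of 30 μmol/L 2-oleoylglycerol and 10 μmol/L oleoyl-CoA.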

[5] = BA test (oral absorption); format: in vivo; conditions: plasma; oral vs intravenous administration, mice or SD rats
Method: Materials and Methods for Experiments to Evaluate Oral Absorption
(1) Animals: the mice or SD rats were used.
(2) Breeding conditions: the mice or SD rats were allowed to freely take solid food and sterilized tap water.
(3) Setting of dosage and grouping: Oral administration and intravenous administration were performed with a predetermined dosage. Grouping was set as below. (dosage changed per compound)
Oral administration: 1 to 30 mg/kg (n=2 to 3)
Intravenous administration: 0.5 to 10 mg/kg (n=2 to 3)
(4) Preparation of administration solution: Oral administration was performed in the form of a suspension or a solution. Intravenous administration was performed after solubilization.
(5) Routes of administration: Oral administration was performed mandatory into the stomach by oral sonde. […]
(6) Evaluation items: blood was collected over time, and the plasma concentration of the compound of the present invention was measured by LC/MS/MS.
(7) Statistical analysis: regarding the transition of the plasma concentration of the compound of the present invention, the area under the plasma concentration-time curve (AUC) was calculated by non-linear least squares program WinNonlin (registered trademark), and the bioavailability (BA) of the compound of the present invention was calculated from the AUCs of the oral administration group and intravenous administration group.

[6] = Powder solubility test; format: physicochemical; conditions: pH 6.8, aqueous buffer, thermodynamic from solid, JP-2 solution, 37° C.
Method: Appropriate quantity of the compound of the present invention was put in suitable containers. 200 μL of JP-1 solution (water was added to 2.0 g of sodium chloride and 7.0 mL of hydrochloric acid to reach 1000 mL), 200 μL of JP-2 solution (500 mL of water was added to 500 mL of phosphate buffer (pH 6.8)) or 20 mmol/L sodium taurocholate (TCA)/JP-2 solution (JP-2 solution was added to 1.08 g of TCA to reach 100 mL) was independently added to each container. When total amount was dissolved after adding the test reagent, the compound of the present invention was added appropriately. After sealing and shaking at 37° C. for 1 hour, solution is filtrated and 100 μL of methanol is added to 100 μL of each filtrate to dilute two-fold. The dilution rate is changed as necessary. After checking that there was no bubble and deposit, the container was sealed and shaken. The compound of the present invention was measured using HPLC by absolute calibration curve method.

| Remaining rate (%) [1] | solubility at 16 h [2] | pIC50 [4] | bioavailability [5] | solubility at 1 h [6] | Compound | inhibition at 10 min, 10 μmol/L [3] |
| --- | --- | --- | --- | --- | --- | --- |
| 76.8% | > 50 µM | – | – | – | CS(=O)(=O)CC(=O)Nc1c2c(nn1CCCOC(F)(F)F)C[C@]1(CCc3cc(OCC(F)(F)F)ccc31)NC2=O [Compound I-253] | 6.9% |
| 98.4% | > 50 µM | 8.42 | 73% | 3.4 µM (≈ 1.94 µg/mL) | Cc1ccc(-n2nc3c(c2NC(=O)CS(C)(=O)=O)C(=O)N[C@](C)(c2ccc(OCC(F)(F)F)cc2F)C3)nc1 [II-94] | – |
